Laboratory results reported in the NIST ThermoML archive (doi:10.1021/je500153g).

Experiments:
[1] = 101 kPa, Liquid; for viscosity: Concentric cylinders viscometry; for mass density: Vibrating tube method
[2] = xn = mol fraction of the nth substance listed; details: 101 kPa, Liquid; for viscosity: Concentric cylinders viscometry; for mass density: Vibrating tube method

CCC(C)O (stereo not given) [butan-2-ol]
[1]
Details	mass density [kg/m3]	viscosity [mPa·s]
303.15 K	799.3	2.51
313.15 K	790.7	1.78
323.15 K	781.7	1.31
333.15 K	772.1	0.99
343.15 K	762	0.78

CCC(C)O (stereo not given) [butan-2-ol] + O=S1(=O)CCCC1
[2], x2 = 0
Details	mass density [kg/m3]	viscosity [mPa·s]
303.15 K	799.3	2.51
313.15 K	790.7	1.78
323.15 K	781.7	1.31
333.15 K	772.1	0.99
343.15 K	762	0.78

OCCOCCO [diethylene glycol]
[1]
Details	mass density [kg/m3]	viscosity [mPa·s]
303.15 K	1110	22.5
313.15 K	1103	14.9
323.15 K	1095.9	10.4
333.15 K	1088.5	7.6
343.15 K	1081.1	5.75

OCCOCCO [diethylene glycol] + O=S1(=O)CCCC1
[2], x2 = 0
Details	mass density [kg/m3]	viscosity [mPa·s]
303.15 K	1110	22.5
313.15 K	1103	14.9
323.15 K	1095.9	10.4
333.15 K	1088.5	7.6
343.15 K	1081.1	5.75

CC(C)O [propan-2-ol]
[1]
Details	mass density [kg/m3]	viscosity [mPa·s]
303.15 K	777.5	1.78
313.15 K	768.8	1.34
323.15 K	759.7	1.03
333.15 K	750	0.79
343.15 K	739.5	0.64

CC(C)O [propan-2-ol] + O=S1(=O)CCCC1
[2], x2 = 0
Details	mass density [kg/m3]	viscosity [mPa·s]
303.15 K	777.5	1.78
313.15 K	768.8	1.34
323.15 K	759.7	1.03
333.15 K	750	0.79
343.15 K	739.5	0.64

O=S1(=O)CCCC1 [sulfolane]
[1]
Details	mass density [kg/m3]	viscosity [mPa·s]
303.15 K	1262.9	10.4
313.15 K	1254.1	8.07
323.15 K	1245.2	6.45
333.15 K	1236.6	5.22
343.15 K	1228.1	4.32

O=S1(=O)CCCC1 [sulfolane] + OCCOCCOCCO
[2], x1 = 1
Details	mass density [kg/m3]	viscosity [mPa·s]
303.15 K	1262.9	10.4
313.15 K	1254.1	8.07
323.15 K	1245.2	6.45
333.15 K	1236.6	5.22
343.15 K	1228.1	4.32

OCCOCCOCCO [triethylene glycol]
[1]
Details	mass density [kg/m3]	viscosity [mPa·s]
303.15 K	1116.5	29.5
313.15 K	1108.9	19.3
323.15 K	1101.1	13.3
333.15 K	1093.4	9.58
343.15 K	1085.5	7.16
